The nature of series [1]: Stability of atropisomers on heating in DMSO (HPLC). In kind it is physicochemical. As to conditions: 50° C., 1 h. The procedure: The stability of the atropisomers was investigated by heating solutions of compounds 80 and 81 in DMSO at 50° C. for 1 h.
The test system of series [2] is HER2-positive tumour cell line, SK-BR-3. Put plainly: In vitro potency / cell viability assay (CellTiter-Glo) in SK-BR-3 cell line. In kind it is cell-based. From the text:
(§1) Loss of tumour cell viability following treatment with cytotoxic drugs or ADCs in vitro can be measured by growing cell lines in the presence of increasing concentrations of drugs or ADCs and quantifying the loss of proliferation or metabolic activity using CellTiter-Glo® Luminescence reagent (Promega). The protocol describes cell seeding, drug treatment and determination of the cell viability in reference to untreated cells based on ATP synthesis, which is directly related to the number of cells present in the well.
HER2-positive tumour cell line, SK-BR-3 (ATCC-HTB-30), was grown in McCoy's 5A medium complemented with 10% foetal bovine serum, 100 u/mL Penicillin and 100 μg/mL Streptomycin. SK-BR-3 cells were detached, seeded at 5,000 cells per well (100 μL/well) into poly-D-lysine coated clear bottom white-walled 96-well plates and incubated for 24 h at 37° C. and 5% CO2.
Serial dilutions of compounds were prepared in triplicate using the relevant cell culture medium as diluent. The CD30-positive Karpas-299 cells were treated with 50 μL compounds at 2× assay concentration. Medium from the SK-BR-3 assay plates was removed and replaced by 100 μL serially diluted compounds at 1× assay concentration. The assay concentrations are specified in Table 1. The cells were then incubated with the compounds (total volume 100 μL/well), at 37° C. and 5% CO2 for a further 96 h.
(§2) At the end of the incubation, cell viability was measured using the CellTiter-Glo® Luminescence reagent, as described by the manufacturer's instructions. The data was subsequently analysed using a four parameter non-linear regression model.
(§3) Viability was expressed as % of untreated cells and calculated using the following formula: […]
The % viability (Y-axis) was plotted against the logarithm of drug concentration in nM (X-axis) to extrapolate the IC50 values for all compounds.
For orientation: Cellular ATP, detected with luciferase, serves as a proxy for viable cell number.

Series [3] concerns CD30-positive human T cell lymphoma cell line Karpas-299. Put plainly: In vitro potency / cell viability assay (CellTiter-Glo) in Karpas-299 cell line. To be noted: 96 h incubation. In kind it is cell-based.
Description: as §1
The CD30-positive human T cell lymphoma cell line Karpas-299 was obtained from Dr Abraham Karpas at the University of Cambridge. The cells were grown in RPMI medium supplemented with 10% foetal bovine serum, 100 U/mL Penicillin and 100 μg/mL Streptomycin. […]
as §2, §3
Loss of tumour cell viability following treatment with ADCs incorporating maytansinoids of the invention was tested by growing cell lines in the presence of increasing concentrations of ADCs and quantifying the loss of proliferation or metabolic activity as described in Example 2. […]

Series [4] can be described thus: Stability in mouse serum (LC-Orbitrap-MS). Type of series: in vitro ADME. To be noted: 37° C., 4 and 7 days, 90% (v/v) mouse serum, 0.05 mg/mL. The procedure: Solutions of compounds 26 and 78 (comparator) in a 50/50 v/v mixture of DMF:buffer solution (20 mM sodium phosphate, 150 mM sodium chloride, 20 mM EDTA, pH 7.5) (0.5 mg/mL) were diluted to 0.05 mg/mL in mouse serum (90% (v/v) serum content). An aliquot of each sample corresponding to the ‘0’ time point was immediately frozen at −80° C., while the remaining sample was incubated at 37° C. for 7 d. Additional aliquots were taken after 4 and 7 d and frozen at −80° C. Prior to analysis, the samples were removed from the freezer and maytansinoid-related species were extracted from the serum by protein precipitation. Protein precipitation was performed by adding acetonitrile (75% v/v) to each time-point aliquot, and after gentle mixing, allowing the mixtures to stand at 4° C. for 2 h. The precipitated protein was then separated by centrifugation (1400×g, 30 min, 4° C.) and the supernatant containing the extracted maytansinoid-related species were analysed by LC-Orbitrap-MS.
The samples were further diluted with water resulting in a 15% v/v acetonitrile solution. An aliquot (2.5 μL) of each solution was then injected onto a nano-liquid chromatography MS system, consisting of a Dionex ULTIMATE 3000 UPLC fitted with a PepMap C18 column (0.075×150 mm), coupled online to an Orbitrap-MS instrument operated in ES positive mode at 75K resolution using lock mass. […]

Setting [5] is: free compounds, as described in Example 2, read-out: Average IC50 (nM) SK-BR-3 Cell line.
[6] abbreviates: Homo sapiens, SK-BR-3, free compounds, as described in Example 2, read-out: Average IC50 (nM) SK-BR-3 Cell line.
[7] abbreviates: Homo sapiens, SK-BR-3, 96 h, 96 h incubation, CellTiter-Glo, read-out: IC50 (nM) SKBR3 Cell line.

“Also recorded” adds a separate entry of the source. Read-outs that look alike come from different tables or passages of the source.

As usually defined, the IC50 is the concentration at which inhibition is half-maximal.

As to `COc1cc2cc(c1-c1ccc(N)cc1Cl)N(C)C(=O)C[C@H](OC(=O)C(C)C)[C@]1(C)O[C@H]1[C@H](C)[C@@H]1C[C@@](O)(NC(=O)O1)[C@H](OC)/C=C/C=C(\C)C2` (single isomer, unassigned) [Compound 81], in series [1], the “stability of atropisomers (HPLC chromatograms)” value is recorded as “no changes were observed”. The IC50 in series [2] (setting [5]) was determined as 0.9 nM.
Take `COc1cc2cc(c1-c1ccc(NC(=O)CCCS)cc1)N(C)C(=O)C[C@H](OC(=O)C(C)C)[C@]1(C)O[C@H]1[C@H](C)[C@@H]1C[C@@](O)(NC(=O)O1)[C@H](OC)/C=C/C=C(\C)C2` [Compound 12]: in series [2] (setting [6]), the IC50 was determined as 4.2 nM.
For the molecule `COc1cc2cc(c1-c1ccc(NC(=O)OC(C)(C)C)cc1)N(C)C(=O)C[C@H](OC(=O)C(C)C)[C@]1(C)O[C@H]1[C@H](C)[C@@H]1C[C@@](O)(NC(=O)O1)[C@H](OC)/C=C/C=C(\C)C2` [Compound 3, 4-(N-Bocamino)phenyl-AP3], the IC50 in series [2] (setting [7]) is 4 nM; in series [3], 0.7 nM.
For `COc1cc2cc(c1-c1ccc(N)c(Cl)c1)N(C)C(=O)C[C@H](OC(=O)C(C)C)[C@]1(C)O[C@H]1[C@H](C)[C@@H]1C[C@@](O)(NC(=O)O1)[C@H](OC)/C=C/C=C(\C)C2` [Compound 5], the IC50 in series [2] (setting [6]) stood at 1.2 nM.
Regarding `COc1cc2cc(c1-c1ccc(N)cc1Cl)N(C)C(=O)C[C@H](OC(=O)C(C)C)[C@]1(C)O[C@H]1[C@H](C)[C@@H]1C[C@@](O)(NC(=O)O1)[C@H](OC)/C=C/C=C(\C)C2` (single isomer, unassigned) [Compound 80], the “stability of atropisomers (HPLC chromatograms)” value in series [1] is on record as “no changes were observed”. Besides, in series [2] (setting [5]), the IC50 was 3.6 nM.
Take `COc1cc2cc(c1-c1ccc(NC(=O)CCC(C)S)c(Cl)c1)N(C)C(=O)C[C@H](OC(=O)C(C)C)[C@]1(C)O[C@H]1[C@H](C)[C@@H]1C[C@@](O)(NC(=O)O1)[C@H](OC)/C=C/C=C(\C)C2` (stereo partly drawn) [Compound 18]: the IC50 in series [2] (setting [6]) came out at 0.9 nM.
Same read-out and setting: for `COc1cc2cc(c1-c1ccc(NC(=O)CCC(C)(C)S)c(Cl)c1)N(C)C(=O)C[C@H](OC(=O)C(C)C)[C@]1(C)O[C@H]1[C@H](C)[C@@H]1C[C@@](O)(NC(=O)O1)[C@H](OC)/C=C/C=C(\C)C2` [Compound 21] the value was 1.7 nM.
Consider `COc1cc2cc(c1-c1ccc(NC(=O)CCC(C)SSC(C)CCC(=O)O)cc1)N(C)C(=O)C[C@H](OC(=O)C(C)C)[C@]1(C)O[C@H]1[C@H](C)[C@@H]1C[C@@](O)(NC(=O)O1)[C@H](OC)/C=C/C=C(\C)C2` (stereo partly drawn) [Compound 26], for which the “degradation in mouse serum” value in series [4] was “no comparable degradation products were observed; also recorded: no degradation products equivalent to A and B”.
As for `COc1cc2cc(c1-c1ccc(NC(=O)CCC(C)(C)S)cc1)N(C)C(=O)C[C@H](OC(=O)C(C)C)[C@]1(C)O[C@H]1[C@H](C)[C@@H]1C[C@@](O)(NC(=O)O1)[C@H](OC)/C=C/C=C(\C)C2` [Compound 9], in series [2] (setting [6]), the IC50 is 7.4 nM.
Regarding `COc1cc2cc(c1/C=C/CN)N(C)C(=O)C[C@H](OC(=O)C(C)C)[C@]1(C)O[C@H]1[C@H](C)[C@@H]1C[C@@](O)(NC(=O)O1)[C@H](OC)/C=C/C=C(\C)C2` [Compound 31, reference compound], the IC50 in series [2] (setting [6]) came to 33.4 nM.
With `COc1cc2cc(c1Cl)N(C)C(=O)C[C@H](OC(=O)[C@H](C)N(C)C(=O)CCC(C)SSC(C)CCC(=O)O)[C@]1(C)O[C@H]1[C@H](C)[C@@H]1C[C@@](O)(NC(=O)O1)[C@H](OC)/C=C/C=C(\C)C2` (stereo partly drawn) [Compound 78, reference compound], in series [4], the “degradation in mouse serum” value is “significant degradation”.
As to `COc1cc2cc(c1-c1ccc(NC(=O)CCS)c(Cl)c1)N(C)C(=O)C[C@H](OC(=O)C(C)C)[C@]1(C)O[C@H]1[C@H](C)[C@@H]1C[C@@](O)(NC(=O)O1)[C@H](OC)/C=C/C=C(\C)C2` [Compound 23], in series [2] (setting [6]), the IC50 came out at 4.2 nM.
On the same count and under the same terms, for `COc1cc2cc(c1-c1ccc(N)cc1)N(C)C(=O)C[C@H](OC(=O)[C@H](C)N(C)C(C)=O)[C@]1(C)O[C@H]1[C@H](C)[C@@H]1C[C@@](O)(NC(=O)O1)[C@H](OC)/C=C/C=C(\C)C2` [Compound 32] the value was 5.5 nM; for `COc1cc2cc(c1-c1ccc(N)cc1)N(C)C(=O)C[C@H](OC(=O)C(C)C)[C@]1(C)O[C@H]1[C@H](C)[C@@H]1C[C@@](O)(NC(=O)O1)[C@H](OC)/C=C/C=C(\C)C2` [Compound 4], 1.2 nM.
For `COc1cc2cc(c1Cl)N(C)C(=O)C[C@H](OC(=O)[C@H](C)N(C)C(=O)CCS)[C@]1(C)O[C@H]1[C@H](C)C1C[C@@](O)(NC(=O)O1)[C@H](OC)/C=C/C=C(\C)C2` [DM1, reference compound], the IC50 in series [2] (setting [7]) is 10 nM; in series [3] it was 9 nM.
Take `COc1cc2cc(c1-c1ccc(NC(=O)CCC(C)S)cc1)N(C)C(=O)C[C@H](OC(=O)C(C)C)[C@]1(C)O[C@H]1[C@H](C)[C@@H]1C[C@@](O)(NC(=O)O1)[C@H](OC)/C=C/C=C(\C)C2` (stereo partly drawn) [Compound 6]: the IC50 in series [2] (setting [6]) came to 2.7 nM.
On to `COc1cc2cc(c1-c1ccc(NC(=O)CCS)cc1)N(C)C(=O)C[C@H](OC(=O)C(C)C)[C@]1(C)O[C@H]1[C@H](C)[C@@H]1C[C@@](O)(NC(=O)O1)[C@H](OC)/C=C/C=C(\C)C2` [Compound 15], for which the IC50 in series [2] (setting [6]) came out at 5.4 nM.

Values taken from US10654873B2, “Cytotoxic agents and conjugates thereof” (priority 2016, dated 2020).
